# Where a SMILES comes first, the peptide text is derived from it.
# What was measured:
# [1] = system: LG2-EBV cells (express HLA-B*3503); assay: 51Cr release assay: lysis of peptide-pulsed LG2-EBV cells by CTL 35-24; format: cell-based, human; details: LG2-EBV cells (HLA-B*3503)
# Description: (§1) The same TNF assay as is described in example 2, supra, was used, except fragments of tyrosinase cDNA, rather than complete cDNA molecules, were used. Three fragments were positive, and these corresponded to nucleotides 1-1086, 427-1134, and 703-1134 of the coding region of tyrosinase cDNA. A fragment corresponding to position 574-831 was negative, leading to the conclusion that nucleotides 831-1086 encoded for the presented antigen. These correspond to amino acids 270-362 of tyrosinase, whose amino acid sequence is known. This amino acid sequence was compared to known peptides, which bind to HLA-B*3501, and its binding motif, as described by Rammensee, et al., supra, incorporated by reference. This reference describes a binding motif for HLA-B35 which is a nonapeptide, where Pro is found at position 2, and Tyr is found at position 9. For decapeptides, Ramensee, et al, gives P2 and Y10 as anchors. HLA-B*3501 was used because no information was found in the art for HLA-B*3503. Ramensee et al. also gives Phe, Met, Leu, and Ile as auxiliary anchors for P9. The peptide defined by amino acid sequence LPSSADVEF (SEQ ID NO: 1) satisfies these requisites, and is found at amino acids 312-320 of tyrosinase. […] The ^51Cr release was measured after 3.5 hours.
# [2] = system: HA7-EBV cells (express HLA B*3501); assay: 51Cr release assay: lysis of peptide-pulsed HA7-EBV cells by CTL 35-24; format: cell-based, human; details: HA7-EBV cells (HLA B*3501)
# Description: as §1
# [3] = varying concentrations of peptide
smiles,measurement,setting,value
"CC(C)C[C@H](N)C(=O)N1CCC[C@H]1C(=O)N[C@@H](CO)C(=O)N[C@@H](CO)C(=O)N[C@@H](C)C(=O)N[C@@H](CC(=O)O)C(=O)N[C@H](C(=O)N[C@@H](CCC(=O)O)C(=O)N[C@@H](Cc1ccccc1)C(=O)O)C(C)C [SEQ ID NO: 1, LPSSADVEF] (H-LPSSADVEF-OH; N-terminus and C-terminus assumed)",EC50,"[1]; 30 minutes with peptide, then CTL 35-24, effector:target 5:1, 51Cr release after 3.5 hours, read-out: dose of peptide giving half maximal lysis",1 nM
same,lysis of peptide-pulsed cells by CTL 35-24,[1]; [3],provoked lysis
same,EC50,"[2]; 30 minutes with peptide, then CTL 35-24, 51Cr release after 3.5 hours, read-out: dose of peptide giving half maximal lysis",~10 nM
same,lysis of peptide-pulsed cells by CTL 35-24,[2]; [3],provoked lysis

# — patent publication US6667037B1, “Isolated peptides which bind to HLA-B35 molecules, larger peptides which contain these, nucleic acid molecules encoding peptides, and uses thereof” (Ludwig Institute for Cancer Research, priority 1998, dated 2003)
